For 1 molecule, ED50 results are on record in patent US5130327A, “Indole derivatives” (Consejo Superior de Investigaciones Cientificas, priority 1989, dated 1992).

Where only a bound is given, the exact number is not on record here.

The nature of assay [1]: Potentiation of β-phenylethylamine. Format: in vivo. From the text:
(§1) The action mechanism was studied in acute and chronic treatments on the interaction response with clonidine, salbutamol (Richard, J. Intern. J. Neuroscience, 9:17-19, 1979) and tetrabenazine (Pletscher, A.: An. N.Y. Aca. Sci. 80:1039-1045, 1959), and the response to the potentiation with L-dopa, L-tryptophan, tryptamine (Jalfre, M. et al., Arch. Int. Pharmacodyn, 159:194-221, 1982) and β-phenylethylamine (Ortmann, et al, Psychopharmacol. 84:22-27, 1984).

Assay [2] in a line: Antagonism of tetrabenazine effects (ptosis and catalepsy). Format: in vivo. The following applies: ptosis and catalepsy at 60 and 120 minutes after administration; read-out: ED50, antagonism of effects induced by tetrabenazine.
Excerpt: as §1

As for `C#CCN(C)Cc1cc2cc(OC)ccc2n1C` [(l), N-methyl-N-propargyl-2-(1-methyl-5-methoxy-indolyl)methylamine], the values for the ED50 in assay [1] and in assay [2] were 27 mg/kg and < 6 mg/kg, respectively.

What is called ED50 is the dose that gives a 50% effect, or the effect in half of the subjects.
